Laboratory results published in patent EP2326328B1, “USE OF DIHYDRALAZINE FOR THE TREATMENT OF DISEASES RELATED TO ELEVATED SEMICARBAZIDE SENSITIVE AMINE-OXIDASE (SSAO) ACTIVITY” (Semmelweis Egyetem, priority 2008, dated 2010).
Values joined by “and” are separate entries in the source; they are usually repeats but may differ in a detail not shown here. Equal entries are not always repeated. Where two headings read alike, the source gives them in different places.

How the values were obtained:
[1] = target: T1, SSAO (Rattus norvegicus, UniProt O08590); assay: serum SSAO activity in vivo in rats after sc treatment; settings: for Specific activity (pmol/mg/h) Mean / Inhibition (%) / Specific activity / inhibition at 10 µmol/kg / inhibition at 100 µmol/kg: rat serum SSAO; for Specific activity (pmol/mg/h) Mean / Specific activity: control mean 3.373; for inhibition at 10 µmol/kg / inhibition at 100 µmol/kg: rat, sc
T1 construct: from tissue; host or cells: rat serum (blood supernatant) of treated animals
T1 sequence (O08590 28-763 limits assumed): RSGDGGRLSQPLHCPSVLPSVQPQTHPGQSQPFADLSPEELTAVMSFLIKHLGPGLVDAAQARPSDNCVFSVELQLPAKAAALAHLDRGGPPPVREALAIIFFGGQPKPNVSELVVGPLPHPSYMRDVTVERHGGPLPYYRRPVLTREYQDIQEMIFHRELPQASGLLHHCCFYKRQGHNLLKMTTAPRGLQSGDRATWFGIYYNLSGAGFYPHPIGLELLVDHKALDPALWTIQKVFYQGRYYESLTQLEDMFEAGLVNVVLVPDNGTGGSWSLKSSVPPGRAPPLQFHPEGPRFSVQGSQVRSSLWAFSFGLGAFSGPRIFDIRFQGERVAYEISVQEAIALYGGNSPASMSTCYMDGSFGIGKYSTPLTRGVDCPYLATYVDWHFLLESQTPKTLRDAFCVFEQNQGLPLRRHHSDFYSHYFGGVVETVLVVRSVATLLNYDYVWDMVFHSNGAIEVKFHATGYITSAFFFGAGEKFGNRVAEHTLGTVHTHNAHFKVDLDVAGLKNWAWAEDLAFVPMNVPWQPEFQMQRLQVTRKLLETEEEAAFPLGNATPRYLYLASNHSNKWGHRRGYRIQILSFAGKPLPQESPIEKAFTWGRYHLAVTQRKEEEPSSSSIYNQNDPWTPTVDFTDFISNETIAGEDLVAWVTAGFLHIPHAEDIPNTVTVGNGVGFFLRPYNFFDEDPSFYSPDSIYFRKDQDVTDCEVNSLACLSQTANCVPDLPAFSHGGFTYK
Experimental: Rats were treated sc with 0.1 or 0.01 M dihydralazine solution (0.1 ml/100 g) once daily for 1-5 days. On the appropriate day, 2 hours after the treatment the rats were decapitated and their blood was collected without anticoagulant in plastic centrifuge tubes. Blood samples were centrifuged at a low frequency (800 rpm/min) and the supernatant was used for the determination of SSAO activity applying ^14C-benzylamine substrate.
SSAO inhibition expressed in pmol/mg protein/hour units and in % values (mean ± S.D.) in the two treated groups is shown in table 2 and 3.

[2] = blood pressure of treated rats, determined in an invasive way; type: in vivo; settings: sc 0.1 or 0.01 M solution (0.1 ml/100 g) once daily for 1-5 days, compared to the control group
Experimental: The blood pressure of the animals was determined in an invasive way. […]

[3] = sc 10 µmol/kg (1.9 mg/kg) once daily, 24 h, individual animals
[4] = sc 10 µmol/kg (1.9 mg/kg) once daily, 48 h, individual animals
[5] = sc 10 µmol/kg (1.9 mg/kg) once daily, 72 h, individual animals
[6] = sc 10 µmol/kg (1.9 mg/kg) once daily, 96 h, individual animals
[7] = sc 10 µmol/kg (1.9 mg/kg) once daily, 120 h, individual animals
[8] = sc 100 µmol/kg (19 mg/kg) once daily, 24 h, individual animals
[9] = sc 100 µmol/kg (19 mg/kg) once daily, 48 h, individual animals
[10] = sc 100 µmol/kg (19 mg/kg) once daily, 72 h, individual animals
[11] = sc 100 µmol/kg (19 mg/kg) once daily, 96 h, individual animals
[12] = sc 100 µmol/kg (19 mg/kg) once daily, 120 h, individual animals

- Specific activity (pmol/mg/h) Mean ([1]; sc 10 µmol/kg (1.9 mg/kg) once daily, 24 h, group mean): 1.580 pmol/mg/h
- Inhibition (%) [1, 3]: 37% and 57%
- Specific activity (pmol/mg/h) Mean ([1]; sc 10 µmol/kg (1.9 mg/kg) once daily, 48 h, group mean): 1.595 pmol/mg/h
- Inhibition (%) [1, 4]: 52% and 55%
- Specific activity (pmol/mg/h) Mean ([1]; sc 10 µmol/kg (1.9 mg/kg) once daily, 72 h, group mean): 1.244 pmol/mg/h
- Inhibition (%) [1, 5]: 69%
- Specific activity (pmol/mg/h) Mean ([1]; sc 10 µmol/kg (1.9 mg/kg) once daily, 96 h, group mean): 1.344 pmol/mg/h
- Inhibition (%) [1, 6]: 71% and 42%
- Specific activity (pmol/mg/h) Mean ([1]; sc 10 µmol/kg (1.9 mg/kg) once daily, 120 h, group mean): 1.425 pmol/mg/h
- Inhibition (%) [1, 7]: 77% and 14% and 82%
- Specific activity (pmol/mg/h) Mean ([1]; sc 100 µmol/kg (19 mg/kg) once daily, 24 h, group mean): 1.094 pmol/mg/h
- Inhibition (%) [1, 8]: 69%
- Specific activity (pmol/mg/h) Mean ([1]; sc 100 µmol/kg (19 mg/kg) once daily, 48 h, group mean): 1.481 pmol/mg/h
- Inhibition (%) [1, 9]: 47% and 61%
- Specific activity (pmol/mg/h) Mean ([1]; sc 100 µmol/kg (19 mg/kg) once daily, 72 h, group mean): 1.177 pmol/mg/h
- Inhibition (%) [1, 10]: 66%
- Specific activity (pmol/mg/h) Mean ([1]; sc 100 µmol/kg (19 mg/kg) once daily, 96 h, group mean): 0.859 pmol/mg/h
- Inhibition (%) [1, 11]: 73%
- Specific activity (pmol/mg/h) Mean ([1]; sc 100 µmol/kg (19 mg/kg) once daily, 120 h, group mean): 0.730 pmol/mg/h
- Inhibition (%) [1, 12]: 62% and 90% and 83%
- inhibition at 10 µmol/kg ([1]; sc 10 µmol/kg (1.9 mg/kg) once daily, 24 h, group mean, read-out: Inhibition (%) Mean): 53%
- inhibition at 10 µmol/kg ([1]; sc 10 µmol/kg (1.9 mg/kg) once daily, 48 h, group mean, read-out: Inhibition (%) Mean): 53%
- inhibition at 10 µmol/kg ([1]; sc 10 µmol/kg (1.9 mg/kg) once daily, 48 h, individual animals, read-out: Inhibition (%)): 51%
- inhibition at 10 µmol/kg ([1]; sc 10 µmol/kg (1.9 mg/kg) once daily, 72 h, group mean, read-out: Inhibition (%) Mean): 63%
- inhibition at 10 µmol/kg ([1]; sc 10 µmol/kg (1.9 mg/kg) once daily, 72 h, individual animals, read-out: Inhibition (%)): 63%
- inhibition at 10 µmol/kg ([1]; sc 10 µmol/kg (1.9 mg/kg) once daily, 96 h, group mean, read-out: Inhibition (%) Mean): 60%
- inhibition at 10 µmol/kg ([1]; sc 10 µmol/kg (1.9 mg/kg) once daily, 120 h, group mean, read-out: Inhibition (%) Mean): 58%
- inhibition at 100 µmol/kg ([1]; sc 100 µmol/kg (19 mg/kg) once daily, 24 h, group mean, read-out: Inhibition (%) Mean): 68%
- inhibition at 100 µmol/kg ([1]; sc 100 µmol/kg (19 mg/kg) once daily, 24 h, individual animals, read-out: Inhibition (%)): 67%
- inhibition at 100 µmol/kg ([1]; sc 100 µmol/kg (19 mg/kg) once daily, 48 h, group mean, read-out: Inhibition (%) Mean): 56%
- inhibition at 100 µmol/kg ([1]; sc 100 µmol/kg (19 mg/kg) once daily, 48 h, individual animals, read-out: Inhibition (%)): 60%
- inhibition at 100 µmol/kg ([1]; sc 100 µmol/kg (19 mg/kg) once daily, 72 h, group mean, read-out: Inhibition (%) Mean): 65%
- inhibition at 100 µmol/kg ([1]; sc 100 µmol/kg (19 mg/kg) once daily, 72 h, individual animals, read-out: Inhibition (%)): 67%
- inhibition at 100 µmol/kg ([1]; sc 100 µmol/kg (19 mg/kg) once daily, 96 h, group mean, read-out: Inhibition (%) Mean): 75%
- inhibition at 100 µmol/kg ([1]; sc 100 µmol/kg (19 mg/kg) once daily, 96 h, individual animals, read-out: Inhibition (%)): 84%
- inhibition at 100 µmol/kg ([1]; sc 100 µmol/kg (19 mg/kg) once daily, 120 h, group mean, read-out: Inhibition (%) Mean): 78%
SMILES: NNc1nnc(NN)c2ccccc12 [dihydralazine]
- SSAO inhibition ([1]; animal experiments, low dose without appreciable blood pressure lowering effect): significant SSAO inhibition
- Specific activity [1, 3]: 2.11 pmol/mg/h and 1.19 pmol/mg/h and 1.44 pmol/mg/h
- Specific activity [1, 4]: 1.66 pmol/mg/h and 1.61 pmol/mg/h and 1.52 pmol/mg/h
- Specific activity [1, 5]: 1.25 pmol/mg/h and 1.06 pmol/mg/h and 1.43 pmol/mg/h
- Specific activity [1, 6]: 0.97 pmol/mg/h and 1.94 pmol/mg/h and 1.12 pmol/mg/h
- Specific activity [1, 7]: 0.78 pmol/mg/h and 2.90 pmol/mg/h and 0.59 pmol/mg/h
- Specific activity [1, 8]: 1.13 pmol/mg/h and 1.05 pmol/mg/h and 1.11 pmol/mg/h
- Specific activity [1, 9]: 1.33 pmol/mg/h and 1.80 pmol/mg/h and 1.31 pmol/mg/h
- Specific activity [1, 10]: 1.11 pmol/mg/h and 1.26 pmol/mg/h and 1.15 pmol/mg/h
- Specific activity [1, 11]: 0.55 pmol/mg/h and 1.12 pmol/mg/h and 0.91 pmol/mg/h
- Specific activity [1, 12]: 1.29 pmol/mg/h and 0.34 pmol/mg/h and 0.56 pmol/mg/h
- blood pressure of the animals [2]: did not cause lowering of the blood pressure
